# Values of other authors, collected in patent US20210115493A1, “METHODS FOR DETERMINING A DRUG DOSING REGIMEN” (Clear Creek Bio, Inc., priority 2019, published 2021).
# Key:
# [1] = system: solid tumor malignancies; details: administered over a 5-day period followed by a 3-week gap, or once per week for three weeks followed by a 1-week gap
# [2] = system: mouse model of AML
structure (smiles),measurement,setting,value
"Cc1c(-c2ccc(-c3ccccc3F)cc2)nc2ccc(F)cc2c1C(=O)O [brequinar, 6-fluoro-2-(2′-fluoro-1,1′biphenyl-4-yl)-3-methyl-4-quinoline carboxylic acid]",efficacy in treatment of solid tumor malignancies,[1],ineffective
same,adverse effects of daily administration of high doses,[2],"weight loss, anemia, and thrombocytopenia"
